These results are taken from PubChem BioAssay (NCI).

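Cultured in 96-well plates, cells were exposed to test compound for 48 hours across five concentrations. The concentration for full growth arrest is given as TGI.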

Among the test systems are SF-268 CNS; SF-295 CNS; UACC-62 melanoma; HCT-15 colon; CCRF-CEM leukemia; MDA-MB-231 breast; SW-620 colon; T-47D breast; SF-539 CNS; NCI-H23 lung; ACHN renal; A498 renal; OVCAR-4 ovarian; OVCAR-3 ovarian; DU-145 prostate; SK-MEL-2 melanoma; EKVX NSCLC; MALME-3M melanoma; MCF7 breast; U251 CNS.
Common to all, as to test: NCI tumour cell line growth inhibition, 48 h

In the case of `C#C/C=C\CCCCCCCCCCCCCC/C=C\CCCCC#CC(O)C#CCCCC/C=C\CCCCCC/C=C/C(O)C#C` (stereo not given), the TGI was 44.4 µM with SF-268 CNS; more than 55.6 µM in the assay on SF-295 CNS; 36.8 µM in the assay on UACC-62 melanoma; more than 62.3 µM in the assay with HCT-15 colon; more than 47.5 µM with CCRF-CEM leukemia; more than 75 µM in the assay with MDA-MB-231 breast. The TGI is more than 52.9 µM with SW-620 colon; 26 µM in the assay with T-47D breast; more than 75 µM with SF-539 CNS; more than 42.6 µM in the assay with NCI-H23 lung; more than 75 µM in the assay with ACHN renal; 74.4 µM in the assay with A498 renal. The TGI in the assay on OVCAR-4 ovarian is 26.4 µM; in the assay on OVCAR-3 ovarian, more than 55.1 µM; in the assay with DU-145 prostate it was more than 75 µM; in the assay on SK-MEL-2 melanoma it was 37.1 µM; in the assay on EKVX NSCLC, 35.9 µM; with MALME-3M melanoma, 33.8 µM. For the same compound, the values for the TGI in the assay on MCF7 breast and in the assay on U251 CNS were more than 40.2 µM and more than 75 µM, respectively.

As to `O=[N+]([O-])c1ccc(Oc2c(Cl)cc(S(=O)(=O)/N=C(\NO)Nc3ccc(Cl)cc3)cc2Cl)c(Cl)c1`, the TGI turned out to be 29.6 µM with SF-268 CNS; 31.1 µM in the assay on SF-295 CNS; 27.5 µM in the assay with UACC-62 melanoma; 32.1 µM in the assay with HCT-15 colon; 98.4 µM in the assay on CCRF-CEM leukemia; 36.7 µM with MDA-MB-231 breast. Also, the TGI worked out at 80.3 µM in the assay on SW-620 colon; 67.7 µM in the assay with T-47D breast; 36.7 µM in the assay with SF-539 CNS; 34.5 µM in the assay with NCI-H23 lung; 28.2 µM in the assay with ACHN renal; 25.9 µM with A498 renal. The TGI was 25.9 µM with OVCAR-4 ovarian; 24.7 µM with OVCAR-3 ovarian; 26.8 µM in the assay with DU-145 prostate; 35.7 µM in the assay with SK-MEL-2 melanoma; 28 µM in the assay with EKVX NSCLC; 28.3 µM with MALME-3M melanoma. For the same compound, the TGI with MCF7 breast came to 34 µM; with U251 CNS it was 30.8 µM.

As to `Cc1occc1C(=S)Nc1ccc(Cl)c(/C=N/OC(C)(C)C)c1`, the TGI in the assay with SF-268 CNS was 54.8 µM; in the assay on SF-295 CNS it was 28.5 µM; in the assay with UACC-62 melanoma, 28 µM; in the assay on HCT-15 colon, 31.2 µM; in the assay with CCRF-CEM leukemia, 53.4 µM; in the assay on MDA-MB-231 breast it was 42.3 µM. For the same compound, the TGI in the assay with SW-620 colon was 36.9 µM; with T-47D breast it was 42.6 µM; with SF-539 CNS it was more than 100 µM; with NCI-H23 lung, 34.4 µM; with ACHN renal it was 30.6 µM; in the assay on A498 renal, 40.2 µM. Moreover, the TGI in the assay on OVCAR-4 ovarian was 45 µM; with OVCAR-3 ovarian, 31.3 µM; with DU-145 prostate, 48.7 µM; in the assay with SK-MEL-2 melanoma, 39.5 µM; in the assay with EKVX NSCLC, 43.3 µM; with MALME-3M melanoma, more than 56.5 µM. Besides, the TGI in the assay on MCF7 breast amounted to 42.9 µM; in the assay with U251 CNS, 28.5 µM.

Consider `O[C@H]1[C@H](O)[C@@H](O)[C@@]2(O)CC[C@@H]1N2`, for which the TGI with SF-268 CNS, with SF-295 CNS, in the assay with UACC-62 melanoma, with HCT-15 colon, with CCRF-CEM leukemia and with MDA-MB-231 breast was more than 100 µM throughout. For the same compound, the TGI with SW-620 colon, in the assay with T-47D breast, in the assay with SF-539 CNS, in the assay with NCI-H23 lung, with ACHN renal and in the assay on A498 renal was more than 100 µM throughout. The TGI in the assay with OVCAR-4 ovarian, in the assay on OVCAR-3 ovarian, in the assay on DU-145 prostate, in the assay on SK-MEL-2 melanoma, in the assay on EKVX NSCLC and in the assay on MALME-3M melanoma was more than 100 µM in each case. The TGI with MCF7 breast and with U251 CNS was more than 100 µM throughout.

Turning to `CN(C)CCCNC(=O)CCNC(=O)c1cc(NC(=O)c2cc(NC(=O)c3cc(NC(=O)c4nccn4C)cn3C)cn2C)cn1C`, the TGI in the assay on SF-268 CNS, in the assay with SF-295 CNS, in the assay on UACC-62 melanoma, with HCT-15 colon, with CCRF-CEM leukemia and with MDA-MB-231 breast was more than 100 µM throughout. Besides, the TGI with SW-620 colon was more than 100 µM; in the assay with T-47D breast it was 97.4 µM; in the assay on SF-539 CNS, more than 100 µM; with NCI-H23 lung, more than 100 µM; with ACHN renal it was more than 100 µM; in the assay on A498 renal, more than 100 µM. The TGI is more than 20.3 µM with OVCAR-4 ovarian; more than 100 µM in the assay with OVCAR-3 ovarian; more than 100 µM in the assay with DU-145 prostate; more than 100 µM with SK-MEL-2 melanoma; more than 100 µM in the assay with EKVX NSCLC; more than 100 µM with MALME-3M melanoma. In addition, the TGI with MCF7 breast and with U251 CNS was more than 100 µM in each case.

For `C[C@]12CC[C@H]3[C@@H](CC=C4C[C@@H](O)CC[C@@]43C)[C@@H]1C/C(=C/c1ccccc1)[C@@H]2O`, the TGI was 89.2 µM with SF-268 CNS; more than 65.9 µM in the assay on SF-295 CNS; 56.5 µM in the assay with UACC-62 melanoma; more than 100 µM with HCT-15 colon; more than 100 µM in the assay on CCRF-CEM leukemia; more than 76.9 µM in the assay with MDA-MB-231 breast. In addition, the TGI was more than 100 µM in the assay with SW-620 colon; more than 59.1 µM in the assay on T-47D breast; more than 86.2 µM in the assay with SF-539 CNS; more than 100 µM with NCI-H23 lung; more than 61.4 µM in the assay with ACHN renal; 35.8 µM in the assay with A498 renal. Further, the TGI is more than 73.2 µM with OVCAR-4 ovarian; 43.3 µM with OVCAR-3 ovarian; more than 64.2 µM in the assay with DU-145 prostate; 57.9 µM with SK-MEL-2 melanoma; more than 70 µM in the assay with EKVX NSCLC; 79.4 µM in the assay on MALME-3M melanoma. Besides, the TGI with MCF7 breast is more than 68.2 µM; in the assay with U251 CNS it was more than 50.5 µM.

Take `CN(C)CCCSc1nc2c(c(=N)n1-c1ccccc1)c(=S)n(-c1ccccc1)c(=S)n2-c1ccccc1`: the TGI in the assay with SF-268 CNS turned out to be 3.33 µM; in the assay on SF-295 CNS, 10.6 µM; in the assay on UACC-62 melanoma, 3.23 µM; in the assay on HCT-15 colon, 3.32 µM; in the assay on CCRF-CEM leukemia, 2.41 µM; in the assay with MDA-MB-231 breast, 3.03 µM. Besides, the TGI with SW-620 colon turned out to be 3.65 µM; with T-47D breast, 4.62 µM; with SF-539 CNS it was 6.95 µM; in the assay on NCI-H23 lung, 4.45 µM; in the assay with ACHN renal, 3.22 µM; with A498 renal, 4.89 µM. Moreover, the TGI with OVCAR-4 ovarian worked out at 3.42 µM; in the assay on OVCAR-3 ovarian, 3.12 µM; in the assay on DU-145 prostate, 3.04 µM; in the assay on SK-MEL-2 melanoma, 4.11 µM; in the assay on EKVX NSCLC, 3.58 µM; in the assay on MALME-3M melanoma, 3.6 µM. The TGI with MCF7 breast was more than 100 µM; in the assay on U251 CNS it was 3.19 µM.
